From patent publication US8828908B2, “Herbicidally active bicyclic 1,3-dione compounds” (Syngenta Limited, priority 2007, dated 2014)

How the values were obtained:
Format in all cases: in vivo
[1] = system: Amaranthus retroflexus (AMARE); assay: Example A post-emergence herbicidal glasshouse test; conditions: 312 h, evaluated after 13 days, 100=total damage to plant, 0=no damage
In short: (§1)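 One day (pre) or eight days (post) after sowing, pots received a spray of test compound formulated in acetone/water 50:50 with 0.5% Tween 20; plants were then kept under controlled glasshouse conditions with watering twice daily and assessed for damage (0–100) at 13 days.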

[2] = system: Alopecurus myosuroides (ALOMY); assay: as above; conditions: 312 h, evaluated after 13 days, 100=total damage to plant, 0=no damage
In short: as §1

Avena fatua (AVEFA) [3] = assay: as above; conditions: 312 h, evaluated after 13 days, 100=total damage to plant, 0=no damage
In short: as §1

Setaria faberi (SETFA) [4] = assay: as above; conditions: 312 h, evaluated after 13 days, 100=total damage to plant, 0=no damage
In short: as §1

[5] = system: Echinochloa crus-galli (ECHCG); assay: as above; conditions: 312 h, evaluated after 13 days, 100=total damage to plant, 0=no damage
In short: as §1

[6] = system: Alopecurus myosuroides (ALOMY); assay: Example B post-emergence herbicidal greenhouse test; conditions: 360 h, evaluated after 15 days, 100=total damage to plant, 0=no damage
Method: (§2) Seeds of a variety of test species were sown in standard soil in pots. After cultivation for one day (pre-emergence) or after 10 days cultivation (post-emergence) under controlled conditions in a glasshouse, the plants were sprayed with an aqueous spray solution derived from the formulation of the technical active ingredient in 0.6 ml acetone and 45 ml formulation solution containing 10.6% Emulsogen EL (Registry number 61791-12-6), 42.2% N-methylpyrrolidone, 42.2% dipropylene glycol monomethyl ether (Registry number 34590-94-8) and 0.2% X-77 (Registry number 11097-66-8). The test plants were then grown in a greenhouse under optimum conditions until, 15 days later for post-emergence and 20 days for pre-emergence, the test was evaluated (100=total damage to plant; 0=no damage to plant).
(§3) Alopecurus myosuroides (ALOMY), Avena fatua (AVEFA), Lolium perenne (LOLPE), Setaria faberi (SETFA), Digitaria sanguinalis (DIGSA), Echinochloa crus-galli (ECHCG)

Lolium perenne (LOLPE) [7] = assay: as above; conditions: 360 h, evaluated after 15 days, 100=total damage to plant, 0=no damage
Method: as §2, §3

Avena fatua (AVEFA) [8] = assay: as above; conditions: 360 h, evaluated after 15 days, 100=total damage to plant, 0=no damage
Method: as §2, §3

Setaria faberi (SETFA) [9] = assay: as above; conditions: 360 h, evaluated after 15 days, 100=total damage to plant, 0=no damage
Method: as §2, §3

[10] = system: Echinochloa crus-galli (ECHCG); assay: as above; conditions: 360 h, evaluated after 15 days, 100=total damage to plant, 0=no damage
Method: as §2, §3

[11] = system: Digitaria sanguinalis (DIGSA); assay: as above; conditions: 360 h, evaluated after 15 days, 100=total damage to plant, 0=no damage
Method: as §2, §3

[12] = system: Alopecurus myosuroides (ALOMY); assay: Example B pre-emergence herbicidal greenhouse test; conditions: 480 h, evaluated after 20 days, 100=total damage to plant, 0=no damage
Method: as §2, §3

Lolium perenne (LOLPE) [13] = assay: Example B pre-emergence herbicidal greenhouse test; conditions: 480 h, evaluated after 20 days, 100=total damage to plant, 0=no damage
Method: as §2, §3

Avena fatua (AVEFA) [14] = assay: Example B pre-emergence herbicidal greenhouse test; conditions: 480 h, evaluated after 20 days, 100=total damage to plant, 0=no damage
Method: as §2, §3

Setaria faberi (SETFA) [15] = assay: Example B pre-emergence herbicidal greenhouse test; conditions: 480 h, evaluated after 20 days, 100=total damage to plant, 0=no damage
Method: as §2, §3

[16] = system: Echinochloa crus-galli (ECHCG); assay: Example B pre-emergence herbicidal greenhouse test; conditions: 480 h, evaluated after 20 days, 100=total damage to plant, 0=no damage
Method: as §2, §3

[17] = system: Digitaria sanguinalis (DIGSA); assay: Example B pre-emergence herbicidal greenhouse test; conditions: 480 h, evaluated after 20 days, 100=total damage to plant, 0=no damage
Method: as §2, §3

[18] = system: Amaranthus retroflexus (AMARE); assay: Example A pre-emergence herbicidal glasshouse test; conditions: 312 h, Rate 250 g/ha, evaluated after 13 days, 100=total damage to plant, 0=no damage to plant
In short: as §1

[19] = system: Alopecurus myosuroides (ALOMY); assay: Example A pre-emergence herbicidal glasshouse test; conditions: 312 h, Rate 250 g/ha, evaluated after 13 days, 100=total damage to plant, 0=no damage to plant
In short: as §1

Avena fatua (AVEFA) [20] = assay: Example A pre-emergence herbicidal glasshouse test; conditions: 312 h, Rate 250 g/ha, evaluated after 13 days, 100=total damage to plant, 0=no damage to plant
In short: as §1

Setaria faberi (SETFA) [21] = assay: Example A pre-emergence herbicidal glasshouse test; conditions: 312 h, Rate 250 g/ha, evaluated after 13 days, 100=total damage to plant, 0=no damage to plant
In short: as §1

[22] = system: Echinochloa crus-galli (ECHCG); assay: Example A pre-emergence herbicidal glasshouse test; conditions: 312 h, Rate 250 g/ha, evaluated after 13 days, 100=total damage to plant, 0=no damage to plant
In short: as §1

Structure (SMILES)	pest or weed control at 250 g/ha [1]	pest or weed control at 250 g/ha [2]	pest or weed control at 250 g/ha (Avena fatua (AVEFA) [3])	pest or weed control at 250 g/ha (Setaria faberi (SETFA) [4])	pest or weed control at 250 g/ha [5]	pest or weed control at 125 g/ha [6]	pest or weed control at 125 g/ha (Lolium perenne (LOLPE) [7])	pest or weed control at 125 g/ha (Avena fatua (AVEFA) [8])	pest or weed control at 125 g/ha (Setaria faberi (SETFA) [9])	pest or weed control at 125 g/ha [10]	pest or weed control at 125 g/ha [11]	pest or weed control at 250 g/ha [12]	pest or weed control at 250 g/ha (Lolium perenne (LOLPE) [13])	pest or weed control at 250 g/ha (Avena fatua (AVEFA) [14])	pest or weed control at 250 g/ha (Setaria faberi (SETFA) [15])	pest or weed control at 250 g/ha [16]	pest or weed control at 250 g/ha [17]	pest or weed control at 250 g/ha [18]	pest or weed control at 250 g/ha [19]	pest or weed control at 250 g/ha (Avena fatua (AVEFA) [20])	other results
CCc1ccc(-c2ccc(Cl)c(F)c2)cc1C1=C(O)[C@H]2CC[C@H](C2)C1=O (single isomer, unassigned) [Compound T36]	0%	90%	100%	100%	100%	80%	30%	100%	100%	100%	100%	70%	90%	60%	90%	100%	100%	0%	70%	50%	pest or weed control at 250 g/ha (Setaria faberi (SETFA) [21]): 100%; pest or weed control at 250 g/ha [22]: 100%
CCc1ccc(-c2ccc(Cl)c(C(F)(F)F)c2)cc1C1=C(O)[C@H]2CC[C@H](C2)C1=O (single isomer, unassigned) [Compound T37]	20%	90%	90%	100%	100%	70%	30%	90%	100%	100%	100%	70%	40%	60%	100%	100%	90%	0%	50%	0%	pest or weed control at 250 g/ha (Setaria faberi (SETFA) [21]): 90%; pest or weed control at 250 g/ha [22]: 90%
CCc1ccc(-c2ccc(F)c(Cl)c2)cc1C1=C(O)[C@H]2CC[C@H](C2)C1=O (single isomer, unassigned) [Compound T39]	0%	60%	30%	100%	100%	0%	10%	20%	70%	80%	80%	70%	90%	40%	90%	90%	90%	20%	50%	30%	pest or weed control at 250 g/ha (Setaria faberi (SETFA) [21]): 100%; pest or weed control at 250 g/ha [22]: 100%
CCc1ccc(-c2ccc(Cl)cc2F)cc1C1=C(O)[C@H]2CC[C@H](C2)C1=O (single isomer, unassigned) [Compound T41]	0%	60%	100%	100%	100%	80%	70%	100%	100%	100%	100%	90%	100%	60%	100%	100%	100%	0%	60%	100%	pest or weed control at 250 g/ha (Setaria faberi (SETFA) [21]): 100%; pest or weed control at 250 g/ha [22]: 90%
CCc1ccc(-c2ccc(Cl)cc2OC)cc1C1=C(O)[C@H]2CC[C@H](C2)C1=O (single isomer, unassigned) [Compound T43]	0%	50%	40%	80%	90%	0%	30%	0%	60%	70%	50%	0%	0%	60%	20%	40%	60%	0%	0%	0%	pest or weed control at 250 g/ha (Setaria faberi (SETFA) [21]): 30%; pest or weed control at 250 g/ha [22]: 90%
CCc1ccc(-c2ccc(Cl)cc2)cc1C1=C(O)[C@H]2C=C[C@H](CC2)C1=O (single isomer, unassigned) [Compound T55]	0%	50%	20%	100%	100%	60%	80%	70%	100%	100%	100%	10%	60%	30%	10%	50%	30%	0%	0%	0%	pest or weed control at 250 g/ha (Setaria faberi (SETFA) [21]): 90%; pest or weed control at 250 g/ha [22]: 70%
CCc1cc(-c2ccc(Cl)cc2)ccc1C1=C(OC(C)=O)[C@@H]2CC[C@@H](C2)C1=O [Compound P3]	0%	90%	80%	100%	100%	90%	80%	80%	80%	80%	90%	30%	50%	10%	60%	50%	70%	0%	60%	40%	pest or weed control at 250 g/ha (Setaria faberi (SETFA) [21]): 80%; pest or weed control at 250 g/ha [22]: 70%
CCc1ccc(-c2ccc(Cl)c(C)c2)cc1C1=C(O)[C@H]2CC[C@H](C2)C1=O [Compound T32, 3-(4′-chloro-4-ethyl-3′-methylbiphen-3-yl)bicyclo[3.2.1]octane-2,4-dione]	0%	60%	0%	90%	100%	30%	0%	10%	30%	100%	70%	90%	90%	10%	60%	100%	100%	0%	30%	40%	pest or weed control at 250 g/ha (Setaria faberi (SETFA) [21]): 20%; pest or weed control at 250 g/ha [22]: 100%
